Data: PubChem BioAssay (NCI)
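Following 48 hours of exposure in 96-well plates, responses at five concentrations were used to interpolate endpoints linearly. TGI marks complete inhibition of growth.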

What was measured:
Assay in all cases: NCI-60 cell line screen, 48 h
BT-549 breast = system: BT-549 breast
CCRF-CEM leukemia = system: CCRF-CEM leukemia
IGROV1 ovarian = system: IGROV1 ovarian
OVCAR-4 ovarian = system: OVCAR-4 ovarian
RXF 393 renal = system: RXF 393 renal
SF-539 CNS = system: SF-539 CNS
SK-MEL-2 melanoma = system: SK-MEL-2 melanoma
SNB-19 CNS = system: SNB-19 CNS
TK-10 renal = system: TK-10 renal
RPMI-8226 leukemia = system: RPMI-8226 leukemia

SMILES | TGI (BT-549 breast) | TGI (CCRF-CEM leukemia) | TGI (IGROV1 ovarian) | TGI (OVCAR-4 ovarian) | TGI (RXF 393 renal) | TGI (SF-539 CNS) | TGI (SK-MEL-2 melanoma) | TGI (SNB-19 CNS) | TGI (TK-10 renal) | TGI (RPMI-8226 leukemia)
CCOC(=O)CCCn1nnc(C(=O)OCC)c1C(=O)OCC | > 100 µM | > 100 µM | > 100 µM | > 100 µM | > 100 µM | > 100 µM | > 100 µM | > 100 µM | > 100 µM | 
S=c1sc2c(Cl)ncnc2n1-c1ccccc1 |  |  | 28.2 µM | 33.6 µM | 28.9 µM | 29.9 µM | 21.3 µM | 32.9 µM | 33.2 µM | 56.7 µM
C/C=C/[C@@]1(OC(=O)c2ccccc2)C[C@@H]2CCCC[C@@H]21 | 28.2 µM | 45.4 µM | 32.1 µM | 32.2 µM |  | 33.1 µM | 30.3 µM | 31.6 µM | 36 µM | 38.5 µM
CC1(C)O[C@H]2Cn3c(c(C#N)c4ccccc43)[C@H]2O1 | > 100 µM |  | > 100 µM | > 100 µM |  | > 100 µM | > 100 µM | > 100 µM | > 100 µM | > 100 µM
O=C(CP(c1ccccc1)c1ccccc1)c1cccc(C(=O)CP(c2ccccc2)c2ccccc2)c1 |  | > 100 µM | > 100 µM | > 100 µM | > 100 µM | > 100 µM | > 100 µM | > 100 µM | > 100 µM | 67.4 µM
C1CC2=C(C1)[Se]C(=C1Sc3nsnc3S1)[Se]2 | > 100 µM | > 100 µM | > 100 µM | > 100 µM |  | > 100 µM | > 100 µM | > 100 µM | > 100 µM | > 100 µM
COc1c2cc([N+](=O)[O-])cc1CNC(=O)CN1CCOCCOCCN(CCOCCOCC1)CC(=O)NC2 | > 100 µM | > 100 µM | > 100 µM | > 100 µM | > 100 µM |  | > 100 µM | > 100 µM | > 100 µM | > 100 µM
O=C(COc1ccc(OCC(=O)N2C(=O)CC(=O)N(c3ccccc3)C2=S)cc1)N1C(=O)CC(=O)N(c2ccccc2)C1=S | > 100 µM |  | > 100 µM | > 100 µM | 95 µM |  | > 100 µM | > 100 µM | > 100 µM | > 100 µM
CC1=NN(C(=O)CSc2nnc(SCC(=O)N3N=C(C)CC3(O)c3ccccc3)s2)C(O)(c2ccccc2)C1 (stereo not drawn) | 47 µM | > 100 µM | > 100 µM | > 100 µM | 75.1 µM |  | > 100 µM | > 100 µM | > 100 µM | > 100 µM
COc1cc(/C=C/C(=O)OCC23CC[C@@]4(C(=O)O)CCC(C)[C@H](C)C4C2=CCC2[C@@]4(C)CC[C@H](O)C(C)(C)C4CC[C@]23C)ccc1O (stereo partly drawn) | 50.6 µM | 22.3 µM | 57.2 µM | 46.9 µM | 47.4 µM | 31.4 µM | 47.5 µM | > 100 µM | 8.9 µM | 
CO/C(=N\N=C\c1cc(OC)ccc1OC)c1ccncc1 |  | > 10 µM | > 10 µM |  | > 10 µM | > 10 µM | > 10 µM | > 10 µM | > 10 µM | > 10 µM
CN1C/C(=C\c2cccs2)C2=NC(=S)NC(c3cccs3)C2C1 (stereo not drawn) | > 100 µM | 53.5 µM | > 100 µM | > 100 µM | > 100 µM |  | > 100 µM | > 100 µM | > 100 µM | > 100 µM
O=C(Nc1cccc2ccccc12)Oc1ccccc1C1CCCCC1 |  | 53.7 µM | 51.2 µM | 32.7 µM | 29.2 µM | 32 µM | 40.4 µM | > 100 µM | 72.3 µM | 81.9 µM
COc1ccc2oc(=N)c(C(=O)Nc3cccc4ccccc34)cc2c1 | > 100 µM | > 100 µM |  | 40.3 µM | 20 µM | > 100 µM | 85.7 µM | 48 µM | 51.1 µM | 57.9 µM
CC(=O)NC1C(OCc2ccccc2)OC(CO)C(O)C1OCC(=O)NC(C)C(=O)NC(CCC(=O)NCCCCNc1ccc([N+](=O)[O-])c2[nH]c3ccccc3c(=O)c12)C(N)=O (stereo not drawn) | > 100 µM |  | > 100 µM | > 100 µM |  | > 100 µM | > 100 µM | > 100 µM | > 100 µM | 
CCC(C)[C@@H](NCc1ccccc1)[C@H](OCc1ccccc1)[C@@H]1COC(C)(C)O1 (stereo partly drawn) |  | 60.9 µM | 37.4 µM | > 100 µM |  |  | 35 µM | 57.3 µM | 32.7 µM | 36.1 µM
O=C1N[C@H]2c3c(Cl)sc(Cl)c3/C(=N/O)[C@H]2O1 | > 100 µM | > 100 µM | > 100 µM |  | > 100 µM | > 100 µM | > 100 µM | > 100 µM | > 100 µM | > 100 µM
O=C(CSc1nnc(-c2ccc(N=Cc3ccc(Cl)cc3)cc2)o1)Nc1ccccc1Cl |  | > 100 µM |  | > 100 µM | > 100 µM |  | > 100 µM | > 100 µM | > 100 µM | > 100 µM
Cc1nc2c(=S)[nH]ncc2[nH]1 | > 100 µM | > 100 µM | > 100 µM | > 100 µM |  | > 100 µM | > 100 µM | > 100 µM | > 100 µM | > 100 µM
O=C(O)CCCl |  | > 5000 µM | > 5000 µM | > 5000 µM | > 5000 µM | > 5000 µM | > 5000 µM |  | > 5000 µM | > 5000 µM
O=c1cnn(C/C=C\CO)c(=O)[nH]1 |  | > 100 µM | > 100 µM |  | > 100 µM | > 100 µM | > 100 µM | > 100 µM | > 100 µM | > 100 µM
O=C(CSCC(=O)N/N=C/c1cc(I)cc(I)c1O)N/N=C/c1cc(I)cc(I)c1O |  |  | 25.3 µM | > 100 µM | 24.5 µM | 38.1 µM | 47.4 µM | 36.6 µM | 31.6 µM | 61.5 µM
COC(=O)c1cn(CCCC(=O)O)nn1 | > 100 µM | > 100 µM | > 100 µM | > 100 µM | > 100 µM | > 100 µM | > 100 µM | > 100 µM | > 100 µM | 
CCc1nn(CN2CCN(C)CC2)c(=S)n1/N=C\c1ccc(-c2ccc([N+](=O)[O-])cc2)o1 | > 100 µM | > 100 µM | > 100 µM | > 100 µM | 82.5 µM |  | > 100 µM | > 100 µM | 71.3 µM | > 100 µM
